The text below walks through data of ChEMBL document CHEMBL1201862, “PubChem BioAssay data set” (2004).

Experiment [1] deals with Phosphomannomutase 2 (Homo sapiens, UniProt O15305). The experiment is described as follows: Counter screen SAR assay for PMM2 inhibitors via a fluorescence intensity assay. [Related pubchem assays (depositor defined):AID1545, AID1574].
Experiment [2] has as its target T1, Mannose-6-phosphate isomerase (Homo sapiens, UniProt P34949).
T1 sequence (P34949 whole entry): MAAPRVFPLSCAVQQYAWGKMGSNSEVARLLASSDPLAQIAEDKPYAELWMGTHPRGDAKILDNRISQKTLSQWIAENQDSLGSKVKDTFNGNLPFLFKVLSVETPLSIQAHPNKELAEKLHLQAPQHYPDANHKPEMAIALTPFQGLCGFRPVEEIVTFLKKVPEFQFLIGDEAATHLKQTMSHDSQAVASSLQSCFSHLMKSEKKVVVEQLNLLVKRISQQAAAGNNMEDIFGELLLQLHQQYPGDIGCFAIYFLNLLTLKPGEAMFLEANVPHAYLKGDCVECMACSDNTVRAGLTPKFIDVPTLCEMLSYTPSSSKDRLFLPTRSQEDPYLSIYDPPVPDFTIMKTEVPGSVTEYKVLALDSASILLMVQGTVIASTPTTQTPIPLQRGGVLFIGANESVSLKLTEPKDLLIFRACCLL
In words: phosphomannose isomerase inhibition – biochemical, fluorescence intensity, confirmation (AID 1535).

Experiment [3] has as its target T1, Mannose-6-phosphate isomerase. The experiment is described as follows: MPI enzyme activity inhibition – biochemical, fluorescence intensity, coupled assay, primary screen (AID 1209).
Experiment [4] concerns the target T2, Dual specificity protein phosphatase 3 (Homo sapiens, UniProt P51452). The experiment is described as follows: VHR1 phosphatase inhibitors, primary screen, biochemical, absorbance, uHTS (AID 1654).
In experiment [5] the target is T2, Dual specificity protein phosphatase 3. The experiment is described as follows: VHR phosphatase inhibition, dose response, selectivity assay for STEP inhibitor project, biochemical (AID 602374). Format: functional. Particulars: read-out: IC50_Mean.
The target in experiment [6] is T3, Dual specificity protein phosphatase 6 (Rattus norvegicus, UniProt Q64346).
T3 sequence (Q64346 whole entry): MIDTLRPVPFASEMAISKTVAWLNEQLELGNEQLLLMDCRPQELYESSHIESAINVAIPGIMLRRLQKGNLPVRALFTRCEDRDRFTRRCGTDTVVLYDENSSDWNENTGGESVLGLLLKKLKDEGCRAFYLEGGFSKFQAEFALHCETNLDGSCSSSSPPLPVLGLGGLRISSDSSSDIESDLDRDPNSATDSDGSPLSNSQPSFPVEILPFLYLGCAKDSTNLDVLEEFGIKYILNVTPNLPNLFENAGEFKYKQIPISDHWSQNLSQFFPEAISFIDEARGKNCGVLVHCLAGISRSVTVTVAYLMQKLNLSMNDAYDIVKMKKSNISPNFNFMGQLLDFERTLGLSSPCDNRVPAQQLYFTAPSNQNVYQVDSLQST
The experiment is described as follows: inhibition of rat DUSP6 enzyme activity – biochemical, in vitro, primary screen (AID 425).

A short description of experiment [7]: viability of uninfected HEp-2 cells – cell-based, HTS, cytotoxicity control for RSV inhibitor project, dose response (AID 2410). Format: functional. Particulars: human respiratory syncytial virus.
In experiment [8] the target is T4, Tyrosine-protein phosphatase non-receptor type 22 (Homo sapiens, UniProt Q9Y2R2).
T4 sequence (Q9Y2R2 whole entry): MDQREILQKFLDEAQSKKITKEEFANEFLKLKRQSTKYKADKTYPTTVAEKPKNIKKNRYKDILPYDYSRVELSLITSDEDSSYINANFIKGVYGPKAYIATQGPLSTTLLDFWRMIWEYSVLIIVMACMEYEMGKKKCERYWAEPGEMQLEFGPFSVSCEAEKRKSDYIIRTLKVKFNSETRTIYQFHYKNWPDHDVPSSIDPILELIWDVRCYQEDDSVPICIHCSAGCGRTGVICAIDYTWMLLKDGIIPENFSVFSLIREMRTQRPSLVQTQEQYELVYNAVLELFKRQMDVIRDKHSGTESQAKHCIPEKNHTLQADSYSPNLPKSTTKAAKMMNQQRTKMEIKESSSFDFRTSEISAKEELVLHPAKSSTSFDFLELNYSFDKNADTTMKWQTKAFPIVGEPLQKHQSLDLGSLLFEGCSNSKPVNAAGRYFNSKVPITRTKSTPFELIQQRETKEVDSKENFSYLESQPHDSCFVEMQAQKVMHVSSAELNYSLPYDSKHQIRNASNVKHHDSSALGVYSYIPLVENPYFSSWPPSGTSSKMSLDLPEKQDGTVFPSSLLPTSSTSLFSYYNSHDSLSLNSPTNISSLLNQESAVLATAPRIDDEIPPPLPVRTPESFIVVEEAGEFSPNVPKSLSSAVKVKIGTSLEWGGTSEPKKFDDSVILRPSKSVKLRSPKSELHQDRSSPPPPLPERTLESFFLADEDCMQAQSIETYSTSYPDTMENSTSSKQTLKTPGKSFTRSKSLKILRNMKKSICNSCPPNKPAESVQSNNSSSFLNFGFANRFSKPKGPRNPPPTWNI
The experiment is described as follows: lymphoid phosphatase LYP inhibitors – biochemical, selectivity assay for STEP inhibitor project, dose response (AID 624241). Format: functional.

In experiment [9] the target is T2, Dual specificity protein phosphatase 3. In words: VHR1 phosphatase inhibitors, biochemical (AID 1878).
For experiment [10], the target named is T5, Low molecular weight phosphotyrosine protein phosphatase (Homo sapiens, UniProt P24666).
T5 sequence (P24666 whole entry): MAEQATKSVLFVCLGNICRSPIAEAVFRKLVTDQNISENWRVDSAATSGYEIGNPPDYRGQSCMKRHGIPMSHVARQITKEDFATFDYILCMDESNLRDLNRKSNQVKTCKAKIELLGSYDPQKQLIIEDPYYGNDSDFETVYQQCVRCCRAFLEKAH
Format: functional. Particulars: read-out: IC50_Mean.

Experiment [11] deals with Envelope glycoprotein gp160 (Human immunodeficiency virus 1, UniProt Q6QLK5). The experiment is described as follows: cell-free HIV fusion peptide-binding blockers – biochemical, uHTS, fluorescence dequenching, […] (AID 1986).
Envelope glycoprotein gp160, sequence (Q6QLK5 whole entry, the tested form may be a part): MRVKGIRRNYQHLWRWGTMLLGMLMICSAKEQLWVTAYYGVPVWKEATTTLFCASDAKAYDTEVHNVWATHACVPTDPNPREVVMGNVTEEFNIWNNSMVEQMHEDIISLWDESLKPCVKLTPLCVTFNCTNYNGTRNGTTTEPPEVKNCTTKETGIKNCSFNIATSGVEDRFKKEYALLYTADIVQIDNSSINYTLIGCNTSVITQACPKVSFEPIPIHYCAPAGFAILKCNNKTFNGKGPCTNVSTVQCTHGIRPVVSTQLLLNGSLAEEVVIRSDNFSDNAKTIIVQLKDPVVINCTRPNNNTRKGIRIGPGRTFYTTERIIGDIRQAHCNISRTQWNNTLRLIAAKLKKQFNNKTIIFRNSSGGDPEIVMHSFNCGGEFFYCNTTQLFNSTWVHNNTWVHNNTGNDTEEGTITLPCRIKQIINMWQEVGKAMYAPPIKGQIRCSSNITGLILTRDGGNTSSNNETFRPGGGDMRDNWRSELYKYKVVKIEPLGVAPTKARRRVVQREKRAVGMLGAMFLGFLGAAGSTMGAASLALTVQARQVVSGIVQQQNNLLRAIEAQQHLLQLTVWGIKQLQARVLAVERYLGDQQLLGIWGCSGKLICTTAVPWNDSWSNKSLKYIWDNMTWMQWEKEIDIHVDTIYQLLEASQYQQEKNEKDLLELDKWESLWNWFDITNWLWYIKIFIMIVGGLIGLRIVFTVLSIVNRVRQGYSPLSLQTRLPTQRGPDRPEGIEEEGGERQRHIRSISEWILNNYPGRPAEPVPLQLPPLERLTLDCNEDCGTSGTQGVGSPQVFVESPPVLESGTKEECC
Experiment [12] deals with T6, Carboxy-terminal domain RNA polymerase II polypeptide A small phosphatase 1 (Homo sapiens, UniProt Q9GZU7).
T6 sequence (Q9GZU7 whole entry): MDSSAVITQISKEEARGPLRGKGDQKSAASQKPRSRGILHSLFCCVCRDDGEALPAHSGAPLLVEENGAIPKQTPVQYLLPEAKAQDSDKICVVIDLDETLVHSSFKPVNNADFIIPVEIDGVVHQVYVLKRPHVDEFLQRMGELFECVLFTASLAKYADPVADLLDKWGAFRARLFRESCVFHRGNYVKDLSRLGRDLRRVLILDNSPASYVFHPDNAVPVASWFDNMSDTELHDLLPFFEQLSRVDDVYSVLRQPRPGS
The experiment is described as follows: CTDSP1 inhibitors, concentration-response, biochemical, absorbance readout, ultra-high-throughput screen actives (AID 540297). Format: functional.

Experiment [13] addresses T5, Low molecular weight phosphotyrosine protein phosphatase. Format: functional. Particulars: read-out: IC50_Mean. The source holds these as a separate data set.
Experiment [14] concerns the target T7, Tyrosine-protein phosphatase non-receptor type 5 (Homo sapiens, UniProt P54829).
T7 sequence (P54829 whole entry): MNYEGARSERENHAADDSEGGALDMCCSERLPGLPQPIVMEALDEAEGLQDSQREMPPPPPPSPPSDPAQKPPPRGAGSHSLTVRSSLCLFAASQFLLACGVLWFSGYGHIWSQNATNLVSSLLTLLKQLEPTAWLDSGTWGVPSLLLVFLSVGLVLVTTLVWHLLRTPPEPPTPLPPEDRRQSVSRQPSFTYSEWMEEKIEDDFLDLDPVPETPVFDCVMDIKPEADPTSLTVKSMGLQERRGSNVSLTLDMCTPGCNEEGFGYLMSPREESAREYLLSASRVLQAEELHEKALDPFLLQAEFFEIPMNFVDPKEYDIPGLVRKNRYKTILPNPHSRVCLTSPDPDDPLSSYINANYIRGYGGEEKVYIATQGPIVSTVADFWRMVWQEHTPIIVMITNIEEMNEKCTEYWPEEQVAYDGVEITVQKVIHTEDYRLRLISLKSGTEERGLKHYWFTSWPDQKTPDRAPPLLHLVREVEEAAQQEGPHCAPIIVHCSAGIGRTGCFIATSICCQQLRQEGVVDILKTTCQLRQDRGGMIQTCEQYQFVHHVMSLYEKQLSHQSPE
In words: PTPN5 enzyme inhibition – biochemical, fluorescence intensity, uHTS hits, confirmation (AID 602372). Format: functional. Particulars: read-out: IC50_Mean.

Experiment [15] concerns the target T4, Tyrosine-protein phosphatase non-receptor type 22. In words: PTPN22 enzyme inhibitors – biochemical, fluorescence, LYP catalytic domain, selectivity assay for LMPTP inhibitor project, dose response (AID 652006). Format: functional. Particulars: read-out: IC50_Mean.
For experiment [16], the target named is T8, Tyrosine-protein phosphatase non-receptor type 11 (Homo sapiens, UniProt Q06124).
T8 sequence (Q06124 whole entry): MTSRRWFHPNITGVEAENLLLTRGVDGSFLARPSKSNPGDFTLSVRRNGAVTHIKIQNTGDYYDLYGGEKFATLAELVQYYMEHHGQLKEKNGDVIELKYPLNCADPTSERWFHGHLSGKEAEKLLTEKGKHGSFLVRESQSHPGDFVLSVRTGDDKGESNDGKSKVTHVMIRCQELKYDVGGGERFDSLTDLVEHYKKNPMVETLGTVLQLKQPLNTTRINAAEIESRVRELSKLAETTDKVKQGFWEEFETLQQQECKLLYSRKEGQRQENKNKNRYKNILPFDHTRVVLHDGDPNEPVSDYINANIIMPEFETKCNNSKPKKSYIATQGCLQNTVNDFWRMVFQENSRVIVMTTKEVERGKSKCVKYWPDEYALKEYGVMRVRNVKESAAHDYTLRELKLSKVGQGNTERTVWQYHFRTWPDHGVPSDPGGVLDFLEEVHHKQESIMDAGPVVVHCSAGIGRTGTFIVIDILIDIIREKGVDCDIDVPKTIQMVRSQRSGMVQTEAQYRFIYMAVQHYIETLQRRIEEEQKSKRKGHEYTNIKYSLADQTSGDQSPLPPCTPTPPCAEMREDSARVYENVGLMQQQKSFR
In words: PTPN11 enzyme inhibitors – biochemical, selectivity assay for STEP inhibitor project, dose response (AID 602367). Format: functional. Particulars: read-out: IC50_Mean.

The nature of experiment [17]: cells.
The target of experiment [18] is Polyadenylate-binding protein 1 (Homo sapiens, UniProt P11940). In words: PABP inhibition in translation initiation, SAR follow-up (AID 435018). Format: functional.
Polyadenylate-binding protein 1, sequence (P11940 whole entry): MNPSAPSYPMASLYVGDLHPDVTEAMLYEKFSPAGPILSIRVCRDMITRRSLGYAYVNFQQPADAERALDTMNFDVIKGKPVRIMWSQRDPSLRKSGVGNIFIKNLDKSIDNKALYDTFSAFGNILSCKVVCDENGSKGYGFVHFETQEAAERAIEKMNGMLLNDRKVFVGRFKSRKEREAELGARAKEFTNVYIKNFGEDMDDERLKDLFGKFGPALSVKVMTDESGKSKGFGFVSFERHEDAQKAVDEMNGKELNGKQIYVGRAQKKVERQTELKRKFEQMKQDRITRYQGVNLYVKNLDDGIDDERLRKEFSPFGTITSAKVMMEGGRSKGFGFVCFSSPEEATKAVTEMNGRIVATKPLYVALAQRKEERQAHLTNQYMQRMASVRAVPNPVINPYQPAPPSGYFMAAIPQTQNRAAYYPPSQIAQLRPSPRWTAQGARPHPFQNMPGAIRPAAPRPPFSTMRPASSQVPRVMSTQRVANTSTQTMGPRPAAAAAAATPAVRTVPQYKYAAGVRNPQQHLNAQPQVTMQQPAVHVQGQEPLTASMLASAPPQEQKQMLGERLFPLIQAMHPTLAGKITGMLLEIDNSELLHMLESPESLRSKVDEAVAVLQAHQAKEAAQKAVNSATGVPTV
In experiment [19] the target is T9, Heat shock factor protein 1 (Mus musculus, UniProt P38532).
T9 sequence (P38532 whole entry): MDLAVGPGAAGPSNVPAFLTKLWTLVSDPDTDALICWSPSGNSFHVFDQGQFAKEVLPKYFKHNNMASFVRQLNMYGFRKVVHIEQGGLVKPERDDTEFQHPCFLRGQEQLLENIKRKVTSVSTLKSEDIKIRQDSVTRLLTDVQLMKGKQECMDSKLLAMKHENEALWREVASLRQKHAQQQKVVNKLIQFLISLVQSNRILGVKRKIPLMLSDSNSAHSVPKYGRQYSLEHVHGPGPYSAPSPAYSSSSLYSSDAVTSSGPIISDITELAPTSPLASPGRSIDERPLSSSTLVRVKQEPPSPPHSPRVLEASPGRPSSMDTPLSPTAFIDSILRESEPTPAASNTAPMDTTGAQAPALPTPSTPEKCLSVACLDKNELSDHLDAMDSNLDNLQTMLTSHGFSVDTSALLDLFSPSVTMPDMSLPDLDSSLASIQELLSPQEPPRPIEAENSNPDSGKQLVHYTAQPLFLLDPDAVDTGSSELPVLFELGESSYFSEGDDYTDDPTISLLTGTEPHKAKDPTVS
The experiment is described as follows: decrease of HSF1-responsive luciferase luminescence – cell-based, NIH3T3, dose retest, confirmation (AID 2382).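 Note: NIH3T3 fibroblasts with HSF1-driven luciferase reporter stressed by proteasome inhibitor MG132; luminescence from HSF1-driven luciferase expression after 8 hours of MG132 stress.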 Format: functional.

For experiment [20], the target named is Eukaryotic translation initiation factor 4H (Homo sapiens, UniProt Q15056). The experiment is described as follows: inhibitors of translation initiation factor eIF4H – SAR follow-up (AID 435011). Format: functional.

Active and inactive are the calls of the source. Some results are limits rather than exact numbers.

T2 sequence (P51452 whole entry): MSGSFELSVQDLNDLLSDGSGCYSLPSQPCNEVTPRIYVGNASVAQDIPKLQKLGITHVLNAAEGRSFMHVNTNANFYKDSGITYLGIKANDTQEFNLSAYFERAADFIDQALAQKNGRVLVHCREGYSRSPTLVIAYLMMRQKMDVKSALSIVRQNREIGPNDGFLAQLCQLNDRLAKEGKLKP
Phosphomannomutase 2, sequence (O15305 whole entry): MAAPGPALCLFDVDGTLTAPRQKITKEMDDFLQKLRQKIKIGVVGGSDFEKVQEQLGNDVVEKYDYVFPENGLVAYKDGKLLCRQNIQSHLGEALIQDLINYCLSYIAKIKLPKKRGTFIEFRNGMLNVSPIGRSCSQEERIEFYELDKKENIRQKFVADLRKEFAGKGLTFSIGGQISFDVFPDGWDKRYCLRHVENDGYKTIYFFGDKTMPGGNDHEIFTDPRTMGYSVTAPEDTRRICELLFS

As to `CCc1ccc(NC2Nc3cc(C)nn3S2)cc1` (stereo not given), the IC50 was > 100 µM (inactive) in [1], > 50 µM (inactive) in [2] and 8.43 µM (active) in experiment [3].

For orientation: CC50 means the concentration at which the toxic effect on the cells reaches its halfway point. As to `CCOc1cc(/C=N/NC2=NC(=O)C(CC(=O)O)S2)ccc1OCc1ccc(Cl)cc1Cl` (stereo not given), the IC50 in experiment [4] was 8.44 µM (active); in [5], 2.42 µM (active); in experiment [6], 25.6 µM (active); in [8] it was 7.26 µM (active); in experiment [9], 5.27 µM (active); in experiment [10], 8.68 µM (active). The IC50 in experiment [11] is 13.6 µM (active); in experiment [12], 2.32 µM (active); in experiment [13], 12.1 µM (active); in [14], 4.09 µM (active); in experiment [15], 22.9 µM (inactive); in experiment [16] it was 2.2 µM (active). Moreover, the IC50 in experiment [17] was 34.6 µM (active). Further, the CC50 in experiment [7] was 20.8 µM (active).

In general, EC50 refers to the concentration giving half of the maximal effect. Lower therefore signals greater potency. Turning to `COc1ccc(CCNC(=O)CSc2ccc(-c3ccco3)nn2)cc1`, the IC50 was > 100 µM (inactive) in [18] and 70.3 µM (active) in experiment [20]. Besides, the EC50 in experiment [19] is listed as > 195 µM (not active).
